Where two headings read alike, the source gives them in different places.
Experiments:
[1] = target: biotinylated human Gal-3 (hGal-3) (Homo sapiens, UniProt P17931); assay: Competitive binding assay: biotinylated hGal-3 binding to microplate-adsorbed asialofetuin (ASF), spectrophotometric
Outline: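 Competitive binding of biotinylated hGal-3 to plate-adsorbed asialofetuin was measured with serially diluted compounds over 3 h at 4° C. Bound protein was detected with streptavidin-peroxidase and ABTS substrate by absorbance. IC50 values are means of several measurements.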

human Gal-1 (hGal-1) = human Gal-1 (hGal-1) (Homo sapiens, UniProt P09382); assay: Competitive binding assay: biotinylated hGal-1 binding to microplate-adsorbed asialofetuin (ASF), spectrophotometric; conditions: hGal-1 binding to asialofetuin; Table 15; R and S epimers of selected Examples also listed; read-out: IC50 (Galectin-1 inhibition)
Sequence of human Gal-1 (hGal-1) (P09382 whole entry): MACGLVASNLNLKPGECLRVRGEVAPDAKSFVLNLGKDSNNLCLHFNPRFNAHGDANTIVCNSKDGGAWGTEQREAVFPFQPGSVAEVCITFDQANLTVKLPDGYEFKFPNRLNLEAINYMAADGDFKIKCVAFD
Outline: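 Biotinylated hGal-1 (300-1000 ng/mL) incubated with compound on asialofetuin-coated plates 3 hours at 4 °C, washed, then streptavidin-peroxidase (80 ng/mL) 1 hour at 4 °C. ABTS substrate read spectrophotometrically; IC50 reported as mean of several measurements.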

[2] = Table 13, hGal-3, read-out: IC50 (Gal-3 inhibition)
[3] = Table 11, hGal-3, read-out: IC50 (Gal-3 inhibition)
[4] = Gal-3 inhibition, Table 5, read-out: IC50
[5] = Gal-3 inhibition, Table 7, read-out: IC50
[6] = Gal-3 inhibition, Table 4, read-out: IC50

Sequence of biotinylated human Gal-3 (hGal-3) (P17931 whole entry): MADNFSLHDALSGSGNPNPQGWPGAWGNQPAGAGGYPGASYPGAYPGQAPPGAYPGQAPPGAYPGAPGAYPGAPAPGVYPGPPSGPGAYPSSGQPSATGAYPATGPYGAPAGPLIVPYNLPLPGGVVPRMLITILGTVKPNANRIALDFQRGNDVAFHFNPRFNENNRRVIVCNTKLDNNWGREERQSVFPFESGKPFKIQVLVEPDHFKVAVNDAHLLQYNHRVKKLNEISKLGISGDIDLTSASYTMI

| IC50 (human Gal-1 (hGal-1)) [nM] | Compound | also measured |
| --- | --- | --- |
| 100 | CO[C@@H]1[C@@H](n2cc(-c3cc(F)c(F)c(F)c3)nn2)[C@@H](O)[C@@H](CO)O[C@H]1S[C@H](C(=O)N1CCC(F)(F)CC1)C1(O)CCC2(CCOCC2)CC1 [Example 2.72.226S.I., (S)-1-(4,4-Difluoropiperidin-1-yl)-2-(((2S,3R,4S,5R,6R)-5-hydroxy-6-(hydroxymethyl)-3-methoxy-4-(4-(3,4,5-trifluorophenyl)-1H-1,2,3-triazol-1-yl)tetrahydro-2H-pyran-2-yl)thio)-2-(9-hydroxy-3-oxaspiro[5.5]undecan-9-yl)ethan-1-one] | IC50 [1, 2]: 40 nM |
| 680 | CCN(C)C(=O)C(S[C@@H]1O[C@H](CO)[C@H](O)[C@H](n2cc(-c3cc(F)c(C)c(F)c3)nn2)[C@H]1O)C1(O)CCOCC1 (stereo partly drawn) [Example 3.41.203., 2-(((2S,3R,4S,5R,6R)-4-(4-(3,5-Difluoro-4-methylphenyl)-1H-1,2,3-triazol-1-yl)-3,5-dihydroxy-6-(hydroxymethyl)tetrahydro-2H-pyran-2-yl)thio)-N-ethyl-2-(4-hydroxytetrahydro-2H-pyran-4-yl)-N-methylacetamide] | IC50 [1, 3]: 40 nM |
| 70 | (S)-2-(((2S,3R,4S,5R,6R)-3,5-Dihydroxy-6-(hydroxymethyl)-4-(4-(3,4,5-trifluorophenyl)-1H-1,2,3-triazol-1-yl)tetrahydro-2H-pyran-2-yl)thio)-2-(1-hydroxycyclohexyl)-N-methyl-N-(pyridin-2-ylmethyl)acetamide [Example 2.39.224S.] | IC50 [1, 4]: 60 nM |
| 130 | CCN(C)C(=O)C(S[C@@H]1O[C@H](CO)[C@H](O)[C@H](n2cc(-c3cc(F)cc(Cl)c3)nn2)[C@H]1O)C1(O)CCOCC1 (stereo partly drawn) [Example 13.41.203., 2-(((2S,3R,4S,5R,6R)-4-(4-(3-Chloro-5-fluorophenyl)-1H-1,2,3-triazol-1-yl)-3,5-dihydroxy-6-(hydroxymethyl)tetrahydro-2H-pyran-2-yl)thio)-N-ethyl-2-(4-hydroxytetrahydro-2H-pyran-4-yl)-N-methylacetamide] | IC50 [1, 3]: 80 nM |
| 130 | CCN(C)C(=O)C(S[C@@H]1O[C@H](CO)[C@H](O)[C@H](n2cc(-c3ccc(F)c(F)c3)nn2)[C@H]1O)C1(O)CCOCC1 (stereo partly drawn) [Example 16.41.203., 2-(((2S,3R,4S,5R,6R)-4-(4-(3,4-Difluorophenyl)-1H-1,2,3-triazol-1-yl)-3,5-dihydroxy-6-(hydroxymethyl)tetrahydro-2H-pyran-2-yl)thio)-N-ethyl-2-(4-hydroxytetrahydro-2H-pyran-4-yl)-N-methylacetamide] | IC50 [1, 3]: 60 nM |
| 140 | CCN(C)C(=O)C(S[C@@H]1O[C@H](CO)[C@H](O)[C@H](n2cc(-c3cc(F)c(Cl)c(Cl)c3)nn2)[C@H]1O)C1(O)CCOCC1 (stereo partly drawn) [Example 17.41.203., 2-(((2S,3R,4S,5R,6R)-4-(4-(3,4-Dichloro-5-fluorophenyl)-1H-1,2,3-triazol-1-yl)-3,5-dihydroxy-6-(hydroxymethyl)tetrahydro-2H-pyran-2-yl)thio)-N-ethyl-2-(4-hydroxytetrahydro-2H-pyran-4-yl)-N-methylacetamide] | IC50 [1, 3]: 40 nM |
| 7500 | CCN(C)C(=O)[C@H](S[C@@H]1O[C@H](CO)[C@H](O)[C@H](n2cc(-c3cc(F)c(F)c(F)c3)nn2)[C@H]1O)C1(O)CCN(S(=O)(=O)C2CC2)CC1 [Example 2.51.203R., (R)-2-(1-(Cyclopropylsulfonyl)-4-hydroxypiperidin-4-yl)-2-(((2S,3R,4S,5R,6R)-3,5-dihydroxy-6-(hydroxymethyl)-4-(4-(3,4,5-trifluorophenyl)-1H-1,2,3-triazol-1-yl)tetrahydro-2H-pyran-2-yl)thio)-N-ethyl-N-methylacetamide] | IC50 ([1]; Table 8, hGal-3, read-out: IC50 (Gal-3 inhibition)): 4960 nM |
| 1640 | CO[C@@H]1[C@@H](n2cc(-c3cc(F)c(F)c(F)c3)nn2)[C@@H](O)[C@@H](CO)O[C@H]1S[C@@H](C(=O)N1CCC(F)(F)CC1)C1(O)CCC2(CCC2)CC1 [Example 2.69.226R.I., (R)-1-(4,4-Difluoropiperidin-1-yl)-2-(((2S,3R,4S,5R,6R)-5-hydroxy-6-(hydroxymethyl)-3-methoxy-4-(4-(3,4,5-trifluorophenyl)-1H-1,2,3-triazol-1-yl)tetrahydro-2H-pyran-2-yl)thio)-2-(7-hydroxyspiro[3.5]nonan-7-yl)ethan-1-one] | IC50 [1, 2]: 570 nM |
| 3050 | CCN(C)C(=O)C(S[C@@H]1O[C@H](CO)[C@H](O)[C@H](n2cc(-c3cc(F)c(F)c(F)c3)nn2)[C@H]1O)C(O)c1ccn(C)n1 (stereo partly drawn) [Example 2.65.203., 2-(((2S,3R,4S,5R,6R)-3,5-dihydroxy-6-(hydroxymethyl)-4-(4-(3,4,5-trifluorophenyl)-1H-1,2,3-triazol-1-yl)tetrahydro-2H-pyran-2-yl)thio)-N-ethyl-3-hydroxy-N-methyl-3-(1-methyl-1H-pyrazol-3-yl)propanamide] | IC50 [1, 5]: 650 nM |
| 200 | CN(CC1CCCC1)C(=O)[C@H](S[C@@H]1O[C@H](CO)[C@H](O)[C@H](n2cc(-c3cc(F)c(F)c(F)c3)nn2)[C@H]1O)C1(O)CCOCC1 [Example 2.41.212., (R)-N-(cyclopentylmethyl)-2-(((2S,3R,4S,5R,6R)-3,5-dihydroxy-6-(hydroxymethyl)-4-(4-(3,4,5-trifluorophenyl)-1H-1,2,3-triazol-1-yl)tetrahydro-2H-pyran-2-yl)thio)-2-(4-hydroxytetrahydro-2H-pyran-4-yl)-N-methylacetamide] | IC50 [1, 6]: 80 nM |
| 180 | CN(C)C(=O)C(S[C@@H]1O[C@H](CO)[C@H](O)[C@H](n2cc(-c3cc(F)c(F)c(F)c3)nn2)[C@H]1O)C1(O)CCC(F)(F)CC1 (single isomer, unassigned) [Example 2.44.201S.] | IC50 [1, 4]: 40 nM |
| 1710 | CN(C)C(=O)C(S[C@@H]1O[C@H](CO)[C@H](O)[C@H](n2cc(-c3cc(F)c(F)c(F)c3)nn2)[C@H]1O)C1(O)CCC(F)(F)CC1 (single isomer, unassigned) [Example 2.44.201R.] | IC50 [1, 4]: 1330 nM |
| 3070 | CN(CC1CC1)C(=O)C(S[C@@H]1O[C@H](CO)[C@H](O)[C@H](n2cc(-c3cc(F)c(F)c(F)c3)nn2)[C@H]1O)C(O)c1ccn(C)n1 (stereo partly drawn) [Example 2.65.218., N-(cyclopropylmethyl)-2-(((2S,3R,4S,5R,6R)-3,5-dihydroxy-6-(hydroxymethyl)-4-(4-(3,4,5-trifluorophenyl)-1H-1,2,3-triazol-1-yl)tetrahydro-2H-pyran-2-yl)thio)-3-hydroxy-N-methyl-3-(1-methyl-1H-pyrazol-3-yl)propanamide] | IC50 [1, 5]: 690 nM |
| 72 | CN(Cc1ccccc1)C(=O)C(S[C@@H]1O[C@H](CO)[C@H](O)[C@H](n2cc(-c3cc(F)c(F)c(F)c3)nn2)[C@H]1O)C1(O)CCOCC1 (stereo partly drawn) [Example 2.41.207., N-Benzyl-2-(((2S,3R,4S,5R,6R)-3,5-dihydroxy-6-(hydroxymethyl)-4-(4-(3,4,5-trifluorophenyl)-1H-1,2,3-triazol-1-yl)tetrahydro-2H-pyran-2-yl)thio)-2-(4-hydroxytetrahydro-2H-pyran-4-yl)-N-methylacetamide] | IC50 [1, 6]: 70 nM |
| 550 | CC1CN(C(=O)[C@@H](S[C@@H]2O[C@H](CO)[C@H](O)[C@H](n3cc(-c4cc(F)c(F)c(F)c4)nn3)[C@H]2O)C2(O)CCOCC2)C1 [Example 2.41.205S., (S)-2-(((2S,3R,4S,5R,6R)-3,5-Dihydroxy-6-(hydroxymethyl)-4-(4-(3,4,5-trifluorophenyl)-1H-1,2,3-triazol-1-yl)tetrahydro-2H-pyran-2-yl)thio)-2-(4-hydroxytetrahydro-2H-pyran-4-yl)-1-(3-methylazetidin-1-yl)ethan-1-one] | IC50 [1, 6]: 120 nM |
| 80 | CCN(C)C(=O)C(S[C@@H]1O[C@H](CO)[C@H](O)[C@H](n2cc(-c3cc(F)c(F)c(Cl)c3)nn2)[C@H]1O)C1(O)CCOCC1 (stereo partly drawn) [Example 15.41.203., 2-(((2S,3R,4S,5R,6R)-4-(4-(3-Chloro-4,5-difluorophenyl)-1H-1,2,3-triazol-1-yl)-3,5-dihydroxy-6-(hydroxymethyl)tetrahydro-2H-pyran-2-yl)thio)-N-ethyl-2-(4-hydroxytetrahydro-2H-pyran-4-yl)-N-methylacetamide] | IC50 [1, 3]: 60 nM |
| 67 | CCN(C)C(=O)[C@@H](S[C@@H]1O[C@H](CO)[C@H](O)[C@H](n2cc(-c3cc(F)c(F)c(F)c3)nn2)[C@H]1O)C1(O)CCOCC1 [Example 2.41.203S., (S)-2-(((2S,3R,4S,5R,6R)-3,5-Dihydroxy-6-(hydroxymethyl)-4-(4-(3,4,5-trifluorophenyl)-1H-1,2,3-triazol-1-yl)tetrahydro-2H-pyran-2-yl)thio)-N-ethyl-2-(4-hydroxytetrahydro-2H-pyran-4-yl)-N-methylacetamide] | IC50 [1, 4]: 30 nM |
| 220 | CN(CC1CC1)C(=O)C(S[C@@H]1O[C@H](CO)[C@H](O)[C@H](n2cc(-c3cc(F)c(F)c(F)c3)nn2)[C@H]1O)C(C)(C)O (stereo partly drawn) [Example 2.31.218., N-(Cyclopropylmethyl)-2-(((2S,3R,4S,5R,6R)-3,5-dihydroxy-6-(hydroxymethyl)-4-(4-(3,4,5-trifluorophenyl)-1H-1,2,3-triazol-1-yl)tetrahydro-2H-pyran-2-yl)thio)-3-hydroxy-N,3-dimethylbutanamide] | IC50 ([1]; Table 6, hGal-3, read-out: IC50 (Gal-3 inhibition)): 30 nM |

— patent US12410208B2, “(2-acetamidyl)thio-beta-D-galactopyranoside derivatives” (Idorsia Pharmaceuticals Ltd, priority 2020, dated 2025)
